From patent publication US10787651B2, “Bradyrhizobium monooxygenase and use thereof for preparation of chiral sulfoxide” (JIANGSU AOSAIKANG PHARMACEUTICAL CO., LTD., priority 2018, dated 2020)

How the values were obtained:
[1] = tested on: engineered cyclohexanone monooxygenase (CHMO); conditions: substrate loading 1.5 g/L, after 17 h; cited from earlier work
[2] = tested on: BoTEMO-M1; test: Asymmetric oxidation of lansoprazole thioether by BoTEMO-M1; assay type: biochemical, Bradyrhizobium oligotrophicum ECU1212; conditions: 10 g/L substrate, 25° C., 24 h
Method: (§1) To 100 ml Tris-HCl buffer (100 mmol/L, pH 9.0) was added 1 g of lyophilized crude enzyme powders of BoTEMO-M1 and 0.2 g crude enzyme of glucose dehydrogenase. Lansoprazole thioether, methanol, NADP^+ and glucose were added to the final concentrations of 10 g/L, 10% (v/v), 0.2 mmol/L and 15 g/L, respectively. The reaction was stirred at 25° C. and 180 rpm for 24 h. When the lansoprazole thioether was asymmetrically catalytically oxidized to (R)-lansoprazole, the resultant conversion of the reaction was above 99%, and the ee value of product was above 99% (R).
as §1, with “To 2 L” for “To 100 ml”, “added 20” for “added 1”, “g” for “g of”, “and 4” for “and 0.2”, “of” for “of the”, “(R). Separation by extraction gave […] of the product (R)-lansoprazole, and the yield was 86%.” for “(R).”

[3] = tested on: Recombinant BoTEMO; test: Asymmetric oxidation of thioethers by recombinant BoTEMO crude enzyme with glucose dehydrogenase recycling; assay type: biochemical, Bradyrhizobium oligotrophicum ECU1212; conditions: 25° C.
Method: The analysis is carried out with a high performance liquid chromatograph (HPLC) under the conditions of: a chiral OD-H column ([…], 5 μm particle size, Daicel), a mobile phase of n-hexane:isopropanol=93:7, a flow rate of 1 ml/min, and UV detection at 254 nm; or an AS-H column (250 mm×4.6 mm, 5 μm particle size, Daicel), a mobile phase of n-hexane:isopropanol=55:45, a flow rate of 0.5 mL/min, and UV detection at 254 nm.
To 0.5 ml potassium phosphate buffer (100 mmol/L, pH 9.0) was added 100 μL of crude enzyme solution of BoTEMO (the crude enzyme solution in accordance with the method of Example 5) and a crude enzyme solution of glucose dehydrogenase, and thioanisole, methanol, NADP^+ and glucose were added to the final concentration of 2 mmol/L, 10% (v/v), 0.2 mmol/L and 3.6 g/L, respectively. At 25° C. and 1000 rpm, the mixture was shaken for 1 h. After completion of reaction, 0.6 ml of ethyl acetate was added for extraction. The extract was dried over anhydrous sodium sulfate, and evaporated to remove the solvent. Then, the residue was dissolved in 0.5 ml of isopropanol. The mixture was analyzed in accordance with the method of Example 7 for measure the conversion of reaction and the ee value of product. The conversion of reaction was above 99%, and the ee value of product was above 99% (S).
To 0.5 ml of potassium phosphate buffer (100 mmol/L, pH 9.0) was added 100 μL crude enzyme solution of BoTEMO (the crude enzyme solution prepared in accordance with the method of Example 5) and a crude enzyme solution of glucose dehydrogenase, and omeprazole thioether, methanol, NADP^+ and glucose were added to the final concentrations of 0.2 mmol/L, 10% (v/v), 0.2 mmol/L and 3.6 g/L, respectively. At 25° C. and 1000 rpm, the mixture was shaken for 1 h. After completion of reaction, 0.6 ml of ethyl acetate was added for extraction. […] Then, the residue was dissolved in 0.5 ml isopropanol, and the solution was analyzed in accordance with the method of Example 7 for measuring the conversion of reaction and the ee value of product. […]
To 10 ml of potassium phosphate buffer (100 mmol/L, pH 9.0) was added 0.1 g of lyophilized crude enzyme powders of BoTEMO (crude enzyme powders prepared in accordance with the method of Example 5) and 0.02 g of lyophilized crude enzyme powder of glucose dehydrogenase (15 U/mg), and 1-3 g/L of omeprazole thioether/lansoprazole thioether/pantoprazole thioether/rabeprazle thioether/ilaprazole thioether, 10% (v/v) of methanol, 0.2 mmol/L of NADP^+ and 10 g/L of glucose were added. […] Then, the residue was dissolved in 0.5 ml of isopropanol, and the solution was analyzed in accordance with the method of Example 7 for measuring the conversion of reaction and the ee value of product. […]

[4] = tested on: BoTEMO-M2; test: Asymmetric oxidation of lansoprazole thioether by BoTEMO-M2; assay type: biochemical, Bradyrhizobium oligotrophicum ECU1212; conditions: BoTEMO-M2 powders in 100 ml, 3 g/L substrate, 25° C., 24 h
Method: as §1, with “added” for “added 1 g of”, “of BoTEMO-M2” for “of BoTEMO-M1”, “of 3” for “of 10”, “and 5.4” for “and 15”

[5] = tested on: Bradyrhizobium oligotrophicum ECU1212 resting cells; test: Asymmetric oxidation of thioethers by whole resting cells; assay type: cell-based
Method: Optionally, resting cells harvested from the culture of Bradyrhizobium oligotrophicum ECU1212 are used to asymmetrically catalyze the oxidation of lansoprazole thioether to prepared (R)-lansoprazole under the conditions that the thioether substrate concentration is 0.1 g/L, the catalyst loading is 10 g/L, and the reaction is carried out at 30° C. under stirring at 180 rpm. The conversion rate of lansoprazole thioether can be up to 80%, and the optical purity can be up to 99% ee(R). it can be seen that the Bradyrhizobium oligotrophicum ECU1212 comprises functional enzyme(s) which serve to asymmetrically catalyze the oxidation and have a high catalytic conversion rate. Thus, it can solve the problem that the conventional bio-catalysts have low conversion rate in the asymmetric catalytic oxidation process. […]
To 100 ml Tris-HCl buffer (100 mmol/L, pH 9.0) was added 1 g of Bradyrhizobium oligotrophicum ECU1212 lyophilized cells (lyophilized cells prepared in accordance with Example 2), and thioanisole and methanol were added to a final concentration of 37 g/L, 10% (v/v). […] Then, the residue was dissolved in 0.5 ml isopropanol, and the solution was analyzed in accordance with the method of Example 7 for the conversion of reaction and the ee value of product. […]

[6] = tested on: Lysinibacillus; conditions: substrate loading 0.1 g/L, after 48 fermentation cultivation; cited from earlier work

For Cc1c(OCC(F)(F)F)ccnc1CSc1nc2ccccc2[nH]1 [lansoprazole thioether], the conversion [1] is given as 1.2%, the “conversion of the reaction” value ([2]; 1 g BoTEMO-M1 powders in 100 ml) is given as “above 99%” and the conversion of reaction ([2]; 20 g BoTEMO-M1 powders in 2 L) is given as “above 99%”. For the same molecule, the conversion of reaction ([3]; 0.2 g crude enzyme powders in 10 ml, 2 g/L substrate, 24 h) was “above 99%”, the “conversion of the reaction” value [4] was “above 99%” and the conversion rate ([5]; substrate 0.1 g/L, catalyst loading 10 g/L, 30° C., 180 rpm) was “up to 80%”.

For COc1ccc2[nH]c(SCc3ncc(C)c(OC)c3C)nc2c1 [omeprazole thioether], the conversion of reaction ([3]; 1 g crude enzyme powders in 100 ml, 1 g/L substrate, 3 h) is given as “above 99%”, the conversion of reaction ([3]; crude enzyme solution, 0.2 mmol/L substrate, 1 h) is given as “above 99%” and the conversion [6] is given as 77%.

For CSc1ccccc1 [thioanisole], the conversion of reaction ([3]; crude enzyme solution, 2 mmol/L substrate, 1 h) was “above 99%” and the conversion of reaction ([5]; 37 g/L substrate, 1 g lyophilized cells in 100 ml, 28° C., 24 h) was “above 99%”.
